Reference: ChEMBL document CHEMBL1130257, “(Aryloxy)alkylamines as selective human dopamine D4 receptor antagonists: potential antipsychotic agents” (J Med Chem, 1997)
pKi: −log10 of the molar value.

Assays:
[1] = biological target: T1, D(4) dopamine receptor (Homo sapiens, UniProt P21917); assay: biochemical
T1 sequence (P21917 whole entry): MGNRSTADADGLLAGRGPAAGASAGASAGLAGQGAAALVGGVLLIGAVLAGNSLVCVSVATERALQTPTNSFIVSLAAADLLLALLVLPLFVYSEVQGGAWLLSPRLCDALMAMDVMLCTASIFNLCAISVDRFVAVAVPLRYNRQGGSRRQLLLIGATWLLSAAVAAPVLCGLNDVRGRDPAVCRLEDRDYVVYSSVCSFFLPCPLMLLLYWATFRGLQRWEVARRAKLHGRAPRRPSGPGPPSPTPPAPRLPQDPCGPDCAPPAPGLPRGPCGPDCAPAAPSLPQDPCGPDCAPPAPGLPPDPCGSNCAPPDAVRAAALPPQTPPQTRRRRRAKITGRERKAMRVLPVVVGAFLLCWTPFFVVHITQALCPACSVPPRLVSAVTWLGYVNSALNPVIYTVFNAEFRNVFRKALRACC
Description: Binding affinity to recombinant human dopamine receptor D4 expressed in CHO cells by displacement of [3H]spiperone

[2] = biological target: D(3) dopamine receptor (Homo sapiens, UniProt P35462); assay: biochemical
D(3) dopamine receptor, sequence (P35462 whole entry): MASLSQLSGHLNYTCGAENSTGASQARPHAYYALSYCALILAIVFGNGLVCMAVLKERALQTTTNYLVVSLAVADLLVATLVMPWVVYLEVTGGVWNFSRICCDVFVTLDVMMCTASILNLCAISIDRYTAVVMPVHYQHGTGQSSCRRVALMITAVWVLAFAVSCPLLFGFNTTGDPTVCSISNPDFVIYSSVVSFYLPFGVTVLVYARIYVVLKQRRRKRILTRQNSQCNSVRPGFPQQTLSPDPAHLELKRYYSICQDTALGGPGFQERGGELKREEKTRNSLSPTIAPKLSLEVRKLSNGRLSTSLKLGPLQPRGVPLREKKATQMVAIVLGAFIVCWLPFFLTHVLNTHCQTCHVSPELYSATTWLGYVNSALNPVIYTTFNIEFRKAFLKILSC
Description: Binding affinity against cloned human dopamine receptor D3 expressed in Chinese hamster ovary (CHO) K-1 cells by displacement of [3H]spiperone.

Row | Compound | pKi [1] | pKi [2]
1 | Clc1ccc(OCCNCCCOc2ccc(Br)cc2)cc1 | 7.42 | 
2 | Cc1cccc(OCCNCCCOc2ccccc2)c1 | 9.34 | 
3 | COc1ccc(OCCNCCCOc2ccccc2)cc1 | 8.27 | 6.43
4 | Cc1ccc(SCCNCCCOc2ccccc2)cc1 | 7.52 | 
5 | Cc1ccccc1OCCNCCCOc1ccccc1 | 7.13 | 
6 | c1ccc(OCCCNCCOc2ccccc2)cc1 | 8.70 | 6.87
7 | Cc1ccc(OCCNCCCOc2ccccc2)cc1 | 9.28 | 6.77
8 | Clc1cccc(OCCNCCCOc2ccccc2)c1 | 9.51 | 
9 | Fc1ccc(OCCCNCCOc2ccc(Cl)cc2)cc1 | 9.08 | 7.01
10 | Cc1ccc(OCCNCCCOc2ccccc2)cc1C | 9.46 | 7.14
11 | c1ccc(CCCNCCCOc2ccccc2)cc1 | 8.48 | 7.77
12 | Clc1ccc(SCCNCCCOc2ccccc2)cc1 | 7.48 | 
13 | Cc1ccc(OCCCNCCOc2ccc(C)cc2)cc1 | 7.96 | 6.63
14 | Cc1ccc(OCCNCCCSc2ccccc2)cc1 | 9.10 | 7.25
15 | O=C(O)c1ccc(OCCNCCCOc2ccccc2)cc1 | < 6.00 | 
16 | Cc1ccc(OCCCNCCOc2ccccc2)cc1 | 8.57 | 
17 | Cc1ccc(OCCNCCCOc2ccc(F)cc2)cc1 | 9.02 | 6.63
18 | Clc1ccccc1OCCNCCCOc1ccccc1 | 8.36 | 7.77
19 | Cc1ccc(OCCCNCCOc2ccc(Cl)cc2)cc1 | 8.25 | 6.75
20 | Cc1ccc(OCCNCCCOc2ccccc2)cc1Cl | 9.28 | 8.41
21 | O=[N+]([O-])c1ccc(OCCNCCCOc2ccccc2)cc1 | 8.36 | 6.46
22 | Oc1ccc(OCCNCCCOc2ccccc2)cc1 | 8.51 | 6.63
23 | Cc1ccc(OCCNCCCOc2ccccc2C)cc1 | 8.96 | 6.42
24 | Cc1ccc(CCCNCCCOc2ccccc2)cc1 | 8.33 | 
25 | Clc1ccc(OCCNCCCSc2ccccc2)cc1 | 8.85 | 7.02
26 | Cc1ccc(OCCNCCCOc2ccc(Br)cc2)cc1 | 7.57 | 5.77
27 | Cc1ccc(OCCNCCCOc2cccc(C)c2)cc1 | 8.92 | 6.72
